Test results taken from US9173876B2, “Preparation and therapeutic applications of (2S,3R)-N-2-((3-pyridinyl)methyl)-1-azabicyclo[2.2.2]oct-3-yl)-3,5-difluorobenzamide” (Targacept, Inc., priority 2009, dated 2015).

Assays:
CD-1 mice = test: Formalin test; type: in vivo, mouse
Description: Subjects (adult male CD-1 mice (Charles River, Raleigh, N.C.) weighing approximately 20-25 grams) were removed from their home cage and weighed, then placed in a clear Plexiglas™ observation box for an acclimation period of 20-30 minutes. Mice were then removed from the observation chambers and (2S,3R)—N-2-((3-pyridinyl)methyl)-1-azabicyclo[2.2.2]oct-3-yl)-3,5-difluorobenzamide (as the hydrochloride salt in 0.9% saline) (1, 3 or 10 mg/kg s.c. (calculated with respect to the free base)), morphine (5 mg/kg; s.c.) or 0.9% saline vehicle was administered subcutaneously in a volume of 1 mL/kg. Mice were then returned to the chamber for the predetermined pretreatment time of 30 minutes for (2S,3R)—N-2-((3-pyridinyl)methyl)-1-azabicyclo[2.2.2]oct-3-yl)-3,5-difluorobenzamide and morphine.
The subject's assigned paw was grasped gently and formalin solution was injected into the paw intra-dermally in the middle on the dorsal side. Once injected, the subject was immediately returned to its observation chamber and a timer was started to mark the beginning of Phase I. Each subject was videotaped for the entire 40-minute session. […] The time spent licking during that 1 min interval was recorded, and the presence or absence of paw favoring was noted.
For data analyses, phase I of the test was defined as 0 to 5 minutes after formalin injection, and phase II was defined as 20 to 40 minutes after formalin injection. The time spent licking during the 1 minute intervals during those time frames was recorded and graphed as mean±S.E.M. For comparisons across treatment groups, 1-way analyses of variance (ANOVAs) were performed for each phase of the session with treatment as the […] variable. Post-hoc analyses were performed when appropriate to determine specific group differences.

normal rats = test: Novel object recognition (NOR) task; type: in vivo, rat; details: for Duration of Effect, NOR (time after dosing): after 3rd administration; for Minimum Effective Dose (MED), NOR: oral, rats, follow-up study FIG. 2
Description: Memory was assessed by using the three-trial novel object recognition test. On the first day (exploratory trial), rats were allowed to explore an open arena (44.5×44.5×30.5 cm) for 6 min. On the second day (acquisition trial), rats were allowed to explore the same arena in the presence of two identical objects (both object A) for 3 minutes. On the third day (retention or recall trial), performance was evaluated by allowing the same animal to re-explore the arena for 3 minutes in the presence of two different objects: the familiar object A and a novel object B. An inter-trial interval of 24 hours was imposed between the three NOR trials. Recognition memory was assessed by comparing the time spent exploring a novel (object B) versus a familiar (object A) object during the recall trial. Recognition index was assessed for each animal and expressed as a ratio ((time B/time A+time B)×100).

db/db mouse = test: Murine model of type 2 diabetes mellitus (db/db mouse); type: in vivo; details: 1.0 mg/kg oral once daily
Excerpt: The db/db mouse, a well established model of type 2 diabetes mellitus, is a leptin-deficient mutant that expresses an obese phenotype and also commonly expresses metabolic symptoms including hyperglycemia, hyperlipidemia and hyperinsulinemia (Halaas et al., 1995 and Lee et al., 1996). This experimental animal model of diabetes was employed in a study designed to determine the effects of (2S,3R)—N-2-((3-pyridinyl)methyl)-1-azabicyclo[2.2.2]oct-3-yl)-3,5-difluorobenzamide on body mass and several additional metabolic parameters.
In this study, (2S,3R)—N-2-((3-pyridinyl)methyl)-1-azabicyclo[2.2.2]oct-3-yl)-3,5-difluorobenzamide was repeatedly administered orally (via gavage) at 1.0 mg/kg once daily starting from the age of approximately 3 weeks and continuing throughout the 7-week study. Nondiabetic heterozygote littermate mice (db/+; designated “Db”) were used as controls. Body weight and food intake were determined twice weekly. The α7 antagonist methyllycaconitine (MLA) was also given concurrently via gavage at 3 mg/kg daily to selected cohorts of db/db (designated “db”) or db/+mice. At the end of the 7-week dosing regimen, total growth rates (overall body weight gain) and average daily food intake were calculated. In addition, glucose levels were assessed in mice fasted overnight. Furthermore, blood sample analytes from mice fasted overnight were collected for measurements of tumor necrosis factor-a (TNF-α), triglycerides and glycosylated hemoglobin (HbA1c). All data are expressed as mean±SEM. For each parameter investigated, differences among all groups were compared by one-way ANOVA with post-hoc Neuman-Keuls multiple comparison test.

Compound: O=C(N[C@@H]1C2CCN(CC2)[C@H]1Cc1cccnc1)c1cc(F)cc(F)c1 [Compound A]
- Time spent licking the paw, phase II (CD-1 mice; 10 mg/kg s.c., 20-40 min after formalin, P<0.05): significant in reducing the time spent licking the paw
- Time spent licking, phase I (CD-1 mice; 1, 3 or 10 mg/kg s.c., 0-5 min after formalin): no statistically significant dose
- Time spent licking, phase I or phase II, re-scored across the entire time period (CD-1 mice; subsequent analysis of the original videotapes): failed to achieve statistical significance
- NOR effect after single oral administration (recall only session) (normal rats; 0.28 μmol/kg oral on day 3 only): pro-cognitive effects
- Recognition index (normal rats; 0.28 μmol/kg oral, 0.5 h after dosing, FIG. 3): 68±4%
- Recognition index (normal rats; 0.28 μmol/kg oral, 2 h after dosing, FIG. 3): 71±2%
- Recognition index (normal rats; 0.28 μmol/kg oral, 6 h after dosing, FIG. 3): 62±2%
- Recognition index (normal rats; 0.28 μmol/kg oral, 24 h after acquisition trial, FIG. 1, vehicle 54±1%): 74±3%
- Recognition index (normal rats; 0.84 μmol/kg oral, 0.5 h after dosing, FIG. 4): 59±2%
- Recognition index (normal rats; 0.84 μmol/kg oral, 2 h after dosing, FIG. 4): 63±2%
- Recognition index (normal rats; 0.84 μmol/kg oral, 6 h after dosing, FIG. 4): 68±3%
- Recognition index (normal rats; 0.84 μmol/kg oral, 18 h after dosing, FIG. 4): 68±3%
- Recognition index (normal rats; 0.84 μmol/kg oral, 24 h after acquisition trial, FIG. 1, vehicle 54±1%): 70±4%
- Duration of Effect, NOR (time after dosing) (normal rats; 0.1 mg/kg (0.28 μmol/kg) oral, FIG. 3, listed as (2S,3R)-N-2-((3-pyridinyl)methyl)-1-azabicyclo[2.2.2]oct-3-yl)-3,5-difluorobenza): Duration 6 h (@ 0.1 mg/kg)
- Duration of Effect, NOR (time after dosing) (normal rats; 0.3 mg/kg (0.84 μmol/kg) oral, FIG. 4, listed as (2S,3R)-N-2-((3-pyridinyl)methyl)-1-azabicyclo[2.2.2]oct-3-yl)-3,5-difluorobenza): Duration 18 h (@ 0.3 mg/kg)
- Duration of Effect, NOR (time after dosing) (normal rats; 0.3 mg/kg (0.84 μmol/kg) oral, FIG. 4, listed as Formula I): ≤ 18 h
- Doses with statistically significant effect in NOR (normal rats; NOR vs. dose, FIG. 1): ≥ 0.1 mg/kg
- Doses with statistically significant effect in NOR (normal rats; minimum effective dose study, FIG. 2): ≥ 0.03 mg/kg
- Minimum Effective Dose (MED), NOR (normal rats; listed as (2S,3R)-N-2-((3-pyridinyl)methyl)-1-azabicyclo[2.2.2]oct-3-yl)-3,5-difluorobenza): MED = 0.084 μmol/kg
- Minimum Effective Dose (MED), NOR (normal rats; listed as (2S,3R)—N-2-((3-pyridinyl)methyl)-1-azabicyclo[2.2.2]oct-3-yl)-3,5-difluorobenza): 0.084 µmol/kg
- All parameters measured (body weight gain, food intake, glucose, HbA1c, TNF-α, triglycerides) (db/db mouse; 7 weeks, obese db/db mice vs vehicle): significant decrease in all parameters measured
- Average daily food consumption (db/db mouse; 7 weeks, obese mice vs obese controls, FIG. 16): significantly lower
- Triglyceride levels (db/db mouse; 7 weeks, obese mice vs vehicle, FIG. 20): significantly lower
- Total body weight gain (db/db mouse; 7 weeks, obese mice, FIG. 15): significantly lower
- Fasting plasma glucose levels (db/db mouse; 7 weeks, obese mice, FIG. 17): significantly inhibited
- Glycosylated HbA1c levels (db/db mouse; 7 weeks, obese mice, FIG. 18): significantly inhibited
- Pro-inflammatory cytokine TNF alpha (db/db mouse; 7 weeks, obese mice, FIG. 19): significantly reduced
- Food consumption (db/db mouse; lean mice (Db), FIG. 16): unaffected
